These results are taken from patent publication US10125138B2, “Triazolotriazinone derivatives having activity a s herbicides” (Syngenta Participations AG, priority 2015, dated 2018).

Common to all, as to type: in vivo
Test [1] deals with Ipomoea hederacea (IPOHE). Nature of the test: Pre-emergence glasshouse herbicide test, Ipomoea hederacea. The note with it: evaluated after 13 days, five point scale. On the procedure: (§1) Seeds of a variety of test species are sown in standard soil in pots (Lolium perenne (LOLPE), Solanum nigrum (SOLNI), Amaranthus retoflexus (AMARE), Setaria faberi (SETFA), Echinochloa crus-galli (ECHCG), Ipomoea hederacea (IPOHE)). After cultivation for one day (pre-emergence) or after 8 days cultivation (post-emergence) under controlled conditions in a glasshouse (at 24/16° C., day/night; 14 hours light; 65% humidity), the plants are sprayed with an aqueous spray solution derived from the formulation of the technical active ingredient in acetone/water (50:50) solution containing 0.5% Tween 20 (polyoxyethelyene sorbitan monolaurate, CAS RN 9005-64-5). […] The test plants are then grown in a glasshouse under controlled conditions in a glasshouse (at 24/16° C., day/night; 14 hours light; 65% humidity) and watered twice daily. After 13 days for pre and post-emergence, the test is evaluated for the percentage damage caused to the plant. The biological activities are shown in the following table on a five point scale (5=80-100%; 4=60-79%; 3=40-59%; 2=20-39%; 1=0-19%).

Test [2] concerns Setaria faberi (SETFA). Nature of the test: Post-emergence glasshouse herbicide test, Setaria faberi. The note with it: evaluated after 13 days, five point scale. On the procedure: as §1
The subject of test [3] is Echinochloa crus-galli (ECHCG). The test can be described thus: Pre-emergence glasshouse herbicide test, Echinochloa crus-galli. Particulars: evaluated after 13 days, five point scale. On the procedure: as §1
The subject of test [4] is Lolium perenne (LOLPE). Nature of the test: Post-emergence glasshouse herbicide test, Lolium perenne. Particulars: applied at 250 g/ha, evaluated after 13 days, five point scale. On the procedure: as §1
The test system of test [5] is Echinochloa crus-galli (ECHCG). The test can be described thus: Post-emergence glasshouse herbicide test, Echinochloa crus-galli. The note with it: evaluated after 13 days, five point scale. As for the experimental part: as §1
The test system of test [6] is Setaria faberi (SETFA). The test can be described thus: Pre-emergence glasshouse herbicide test, Setaria faberi. Particulars: evaluated after 13 days, five point scale. On the procedure:
as §1

For test [7], the system named is Amaranthus retoflexus (AMARE). Nature of the test: Post-emergence glasshouse herbicide test, Amaranthus retoflexus. The note with it: evaluated after 13 days, five point scale. As for the experimental part: as §1
In test [8] the test system is Amaranthus retoflexus (AMARE). The test can be described thus: Pre-emergence glasshouse herbicide test, Amaranthus retoflexus. The note with it: evaluated after 13 days, five point scale. On the procedure: as §1
Test [9] deals with Ipomoea hederacea (IPOHE). The test can be described thus: Post-emergence glasshouse herbicide test, Ipomoea hederacea. The note with it: evaluated after 13 days, five point scale. On the procedure: as §1
For test [10], the system named is Lolium perenne (LOLPE). The test can be described thus: Pre-emergence glasshouse herbicide test, Lolium perenne. Particulars: applied at 250 g/ha, evaluated after 13 days, five point scale. On the procedure: as §1

In the case of `O=C1CCCC(=O)C1C(=O)c1nn2cnn(-c3ccccc3)c2nc1=O` [Compound 4.001], the “percentage damage caused to the plant, PRE Application IPOHE” value in test [1] (applied at 250 g/ha) is 1 (1=0-19%). The “percentage damage caused to the plant, POST Application SETFA” value with Setaria faberi (SETFA) [2] (applied at 250 g/ha) is 5 (5=80-100%). Besides, the “percentage damage caused to the plant, PRE Application ECHCG” value in test [3] (applied at 250 g/ha) is 5 (5=80-100%). The “percentage damage caused to the plant, POST Application LOLPE” value with Lolium perenne (LOLPE) [4] is 1 (1=0-19%). Also, in [5] (applied at 250 g/ha), the “percentage damage caused to the plant, POST Application ECHCG” value was 5 (5=80-100%). Further, in the test on Setaria faberi (SETFA) [6] (applied at 250 g/ha), the “percentage damage caused to the plant, PRE Application SETFA” value is 1 (1=0-19%). In addition, the “percentage damage caused to the plant, POST Application AMARE” value in test [7] (applied at 250 g/ha) is recorded as 5 (5=80-100%). Further, in test [8] (applied at 250 g/ha), the “percentage damage caused to the plant, PRE Application AMARE” value was 5 (5=80-100%). The “percentage damage caused to the plant, POST Application IPOHE” value in test [9] (applied at 250 g/ha) is 5 (5=80-100%). In the test with Lolium perenne (LOLPE) [10], the “percentage damage caused to the plant, PRE Application LOLPE” value was 2 (2=20-39%).

Regarding `O=C1CCCC(=O)C1C(=O)c1nn2cnn(-c3ccc(C(F)(F)F)cc3)c2nc1=O` [Compound 4.008], the “percentage damage caused to the plant, PRE Application IPOHE” value in [1] (1000 g/h) is on record as 5 (5=80-100%). For the same compound, the “percentage damage caused to the plant, POST Application SETFA” value in the test on Setaria faberi (SETFA) [2] (1000 g/h) was 5 (5=80-100%). For the same compound, in test [3] (1000 g/h), the “percentage damage caused to the plant, PRE Application ECHCG” value is given as 5 (5=80-100%). In [5] (1000 g/h), the “percentage damage caused to the plant, POST Application ECHCG” value is on record as 5 (5=80-100%). The “percentage damage caused to the plant, PRE Application SETFA” value in the test with Setaria faberi (SETFA) [6] (1000 g/h) is given as 5 (5=80-100%). In addition, the “percentage damage caused to the plant, POST Application AMARE” value in test [7] (1000 g/h) is reported as 4 (4=60-79%). The “percentage damage caused to the plant, PRE Application AMARE” value in test [8] (1000 g/h) is on record as 5 (5=80-100%). Moreover, the “percentage damage caused to the plant, POST Application IPOHE” value in test [9] (1000 g/h) is reported as 5 (5=80-100%).

As to `O=C1CCCC(=O)C1C(=O)c1nn2cnn(-c3cccc(Cl)c3)c2nc1=O` [Compound 4.009], in test [1] (1000 g/h), the “percentage damage caused to the plant, PRE Application IPOHE” value is 5 (5=80-100%). Besides, the “percentage damage caused to the plant, POST Application SETFA” value in the test on Setaria faberi (SETFA) [2] (1000 g/h) is 5 (5=80-100%). Further, the “percentage damage caused to the plant, PRE Application ECHCG” value in [3] (1000 g/h) is on record as 5 (5=80-100%). Besides, the “percentage damage caused to the plant, POST Application ECHCG” value in [5] (1000 g/h) is given as 5 (5=80-100%). In the test with Setaria faberi (SETFA) [6] (1000 g/h), the “percentage damage caused to the plant, PRE Application SETFA” value was 5 (5=80-100%). Besides, the “percentage damage caused to the plant, POST Application AMARE” value in test [7] (1000 g/h) is given as 5 (5=80-100%). Also, the “percentage damage caused to the plant, PRE Application AMARE” value in test [8] (1000 g/h) is on record as 5 (5=80-100%). In addition, in test [9] (1000 g/h), the “percentage damage caused to the plant, POST Application IPOHE” value is given as 5 (5=80-100%).

For `O=C(c1nn2cnn(-c3ccc(C(F)(F)F)cc3)c2nc1=O)C1C(=O)C2CCC(C2)C1=O` (stereo not drawn) [Compound 5.008], the “percentage damage caused to the plant, PRE Application IPOHE” value in [1] (1000 g/h) is listed as 5 (5=80-100%). Besides, in the test with Setaria faberi (SETFA) [2] (1000 g/h), the “percentage damage caused to the plant, POST Application SETFA” value is 5 (5=80-100%). For the same compound, the “percentage damage caused to the plant, PRE Application ECHCG” value in test [3] (1000 g/h) is 5 (5=80-100%). Also, the “percentage damage caused to the plant, POST Application ECHCG” value in [5] (1000 g/h) was 5 (5=80-100%). For the same compound, in the test with Setaria faberi (SETFA) [6] (1000 g/h), the “percentage damage caused to the plant, PRE Application SETFA” value was 5 (5=80-100%). The “percentage damage caused to the plant, POST Application AMARE” value in test [7] (1000 g/h) was 5 (5=80-100%). In addition, the “percentage damage caused to the plant, PRE Application AMARE” value in test [8] (1000 g/h) is given as 5 (5=80-100%). Further, in test [9] (1000 g/h), the “percentage damage caused to the plant, POST Application IPOHE” value was 5 (5=80-100%).

In the case of `Cc1cccc(-n2ncn3nc(C(=O)C4C(=O)CC(C)CC4=O)c(=O)nc23)c1` (stereo not drawn) [Compound 6.001], the “percentage damage caused to the plant, PRE Application IPOHE” value in test [1] (1000 g/h) was 5 (5=80-100%). In addition, in the test with Setaria faberi (SETFA) [2] (1000 g/h), the “percentage damage caused to the plant, POST Application SETFA” value is recorded as 5 (5=80-100%). Besides, the “percentage damage caused to the plant, PRE Application ECHCG” value in test [3] (1000 g/h) is on record as 5 (5=80-100%). Also, the “percentage damage caused to the plant, POST Application ECHCG” value in test [5] (1000 g/h) is given as 5 (5=80-100%). In the test on Setaria faberi (SETFA) [6] (1000 g/h), the “percentage damage caused to the plant, PRE Application SETFA” value was 4 (4=60-79%). Moreover, in [7] (1000 g/h), the “percentage damage caused to the plant, POST Application AMARE” value is given as 5 (5=80-100%). For the same compound, the “percentage damage caused to the plant, PRE Application AMARE” value in [8] (1000 g/h) is given as 5 (5=80-100%). The “percentage damage caused to the plant, POST Application IPOHE” value in test [9] (1000 g/h) is recorded as 5 (5=80-100%).
